How the values were obtained:
HIV-1 Y181C variant [1] = type: cell-based; settings: relative to 1f
[2] = observed; cited from earlier work
[3] = tested on: HIV-1 Y181C combined with Lys103Asn; settings: cited from earlier work
HIV-1 Y181C variant [4] = settings: ref 7b, cited from earlier work
[5] = tested on: HIV-1 strains with Tyr181Cys (Y181C) mutation; settings: cited from earlier work

For `CCc1cc(F)c(Cc2cnc(Nc3ccc(C#N)c(Cl)c3)o2)c(F)c1` [Compound 1e], the “gain in WT potency over 1b (factor)” value (HIV-1 IIIB (wild-type); relative to 1b) was 5.
With `N#Cc1ccc(Nc2ncc(Cc3c(F)cc(C4CC4)cc3F)o2)cc1Cl` [Compound 1g] the “factor less active against WT virus than 1f” value (HIV-1 IIIB (wild-type); relative to 1f) was 5 and the “fold less active towards Y181C variant than 1f” value (HIV-1 Y181C variant [1]) was 200 fold.
In the case of `CC(C)c1ccccc1` [isopropylbenzene], the “octanol/water log P” value [2] is given as 3.7.
With `CCc1cc(F)c(Cc2cnc(Nc3ccc(Oc4cccnc4)c(Cl)c3)o2)c(F)c1` [Compound 2b] the “fold activity boost against WT virus in comparison to 2a” value (HIV-1 IIIB (wild-type); relative to 2a) was 5 fold.
In the case of `O=C1Nc2ccc(Cl)cc2[C@@](C#CC2CC2)(C(F)(F)F)O1` [efavirenz], the “activity towards Y181C combined with Lys103Asn” value [3] is listed as “debilitated”.
In the case of `c1ccc(C2CC2)cc1` [cyclopropylbenzene], the “octanol/water log P” value [2] is listed as 3.3.
For `Fc1cccc(F)c1Cc1cnc(Nc2ccc(Oc3cccnc3)c(Cl)c2)o1` [Compound 2a], the EC50 (HIV-1 Y181C variant [4]; read-out: EC50 for the Y181C variant, earlier work) is listed as 3000 nM.
For `Cc1ccnc2c1NC(=O)c1cccnc1N2C1CC1` [nevirapine], the “activity towards HIV-1 strains with Y181C mutation” value [5] is given as “inactive”.
In the case of `CC(C)Nc1cccnc1N1CCN(C(=O)c2cc3cc(NS(C)(=O)=O)ccc3[nH]2)CC1` [delavirdine], the “activity towards HIV-1 strains with Y181C mutation” value [5] is listed as “inactive”.
In the case of `N#Cc1ccc(Nc2ncc(Cc3c(F)cccc3F)o2)cc1` [Compound 1a], the “activity towards a Y181C-containing strain” value (HIV-1 Y181C variant [4]; earlier work) is given as “no activity”.
